Data: patent US4845080A, “Human calcitonin peptide with salmon calcitonin-like characteristics” (Ciba-Geigy Corporation, priority 1983, dated 1989)

Key:
[1] = target: antibody serum to synthetic sCT; assay: Radioimmunoassay with antibodies to synthetic sCT, inhibition of [125I]sCT binding; set-up: species or system goat
Procedure: The concentration of hCT 2 is determined radioimmunologically in a concentration series. 10, 20, 50 and 100 μl, respectively, of the HPLC fractions, which have been aftertreated as described above, are preincubated for 3 days at 4° C. together with 100 μl of antibody serum to synthetic sCT (Sandoz AG, Basle, Switzerland) in an immunoassay buffer with a total volume of 300 μl (immunoassay buffer: 0.05M phosphate, pH 7.5, 10% of human serum containing no detectable amounts of immunoreactive sCT), and, after the addition of 200 μl of assay buffer having 15,000 dpm of [^125 I]sCT (specific activity 600 Ci/mmol), subsequently incubated for a further 3 days at 4° C. The labelling of sCT with ^125 I is performed with Chloramin-T (Eastman Kodak, Rochester, USA) essentially according to the method of W. M. Hunter and F. C.
The above-mentioned antibody serum is obtained as follows: The antibodies are produced in a 25 kg goat after primary immunisation with 200 μg of sCT (see above) as antigen, and reimmunisation with 100 μg of the same antigen 30 days after the primary immunisation. For immunisation, sCT is dissolved in 0.01M acetic acid (1 mg/ml), the solution is mixed with 2 percent by weight of solid aluminium hydroxide (Alhydrogel, Superfos Export Co. a/s Copenhagen, Denmark) and the mixture is suspended in an equal volume of complete Freund's adjuvant (Difco Laboratories, Detroit, Mich., USA). This suspension is produced in an Omnimixer (Sorvall) at 4° C. at the maximum mixing rate. 0.5-1.0 ml of suspension is drawn up into disposable syringes (Primo 1 ml, Asik I/S, Denmark), and administered on each leg subcutaneously in the region of the subaxillary lymph nodes. Ten days after the abovementioned reimmunisation, 50-80 ml of blood containing the desired antibodies against sCT are withdrawn from the jugular vein into heparinised tubes, and the plasma obtained is stored at -20° C. in 3-5 ml portions.
(§1) The quantity of antibodies obtained is estimated by measurement of the binding of the withdrawn plasma to [^125 I] sCT. Antibody-bound and free [^125 I]sCT are separated by means of charcoal coated with dextran, in the main according to the method of V. Herbert, K.-S. Lau, C. W. Gottlieb and S. J. Bleicher [J. Clin. Endocrinol. Metab. 25, 1375-1384 (1965)]. The same method is used for the detection of antibodies in human serum.

[2] = Detection of antibodies able to react with sCT in human serum (binding to [125I]sCT); conditions: verified with radioimmunoassay
Description: (c) in the human serum no initiation of the formation of detectable amounts of antibodies which are able to react with sCT, the binding to [^125 I]sCT having a specific activity of 600 Ci/mmol being used for verfying this evidence;
The substance hCT 2 differs from the known hCT in the aforementioned HPLC system by virtue of a clearly different retention time; on the other hand, hCT 2 has a retention time practically identical to that of sCT. In the aforementioned gel system, the elution volume of hCT 2 differs from that of hCT, but is practically identical to that of sCT. These facts indicate that hCT 2 with respect to the amino acid composition, even though not necessarily with respect to the amino acid sequence, is more closely related to sCT than to hCT. With regard to immunology, however, hCT 2 differs greatly from sCT.
as §1

half maximum inhibition of the binding of [125I]sCT to the antibodies ([1]; antibody final dilution 1:25,000, 15,000 dpm [125I]sCT, 4° C., amount per tube) | concentration at which the antibodies react with sCT compared with hCT, which they do not recognise ([1]; lower concentration for sCT) | half maximum inhibition of the binding of [125I]sCT to the antibodies ([1]; same value given in pmol) [pmol] | SMILES | amount not giving comparable (half maximum) inhibition of the binding of [125I]sCT to the antibodies ([1]; antibody final dilution 1:25,000) [µg] | formation of antibodies in the human serum [2]
– | – | – | CC[C@H](C)[C@H](NC(=O)[C@H](C)NC(=O)[C@@H](NC(=O)[C@H](CCC(N)=O)NC(=O)[C@@H]1CCCN1C(=O)[C@H](Cc1ccccc1)NC(=O)[C@@H](NC(=O)[C@H](Cc1c[nH]cn1)NC(=O)[C@H](Cc1ccccc1)NC(=O)[C@H](CCCCN)NC(=O)[C@H](CC(N)=O)NC(=O)[C@H](Cc1ccccc1)NC(=O)[C@H](CC(=O)O)NC(=O)[C@H](CCC(N)=O)NC(=O)[C@@H](NC(=O)[C@H](Cc1ccc(O)cc1)NC(=O)[C@@H](NC(=O)CNC(=O)[C@H](CC(C)C)NC(=O)[C@H](CCSC)NC(=O)[C@@H]1CSSC[C@H](N)C(=O)NCC(=O)N[C@@H](CC(N)=O)C(=O)N[C@@H](CC(C)C)C(=O)N[C@@H](CO)C(=O)N[C@@H]([C@@H](C)O)C(=O)N1)[C@@H](C)O)[C@@H](C)O)[C@@H](C)O)[C@@H](C)O)C(=O)NCC(=O)N[C@H](C(=O)NCC(=O)N[C@@H](C)C(=O)N1CCC[C@H]1C(N)=O)C(C)C [hCT, human calcitonin-(1-32)] | > 10 | –
about 100 pg | ≤ 10^5 fold | 0.03 | CC(C)C[C@H](NC(=O)[C@H](CCCCN)NC(=O)CNC(=O)[C@H](CC(C)C)NC(=O)[C@@H](NC(=O)[C@@H]1CSSC[C@H](N)C(=O)N[C@@H](CO)C(=O)N[C@@H](CC(N)=O)C(=O)N[C@@H](CC(C)C)C(=O)N[C@@H](CO)C(=O)N[C@@H]([C@@H](C)O)C(=O)N1)C(C)C)C(=O)N[C@@H](CO)C(=O)N[C@@H](CCC(N)=O)C(=O)N[C@@H](CCC(=O)O)C(=O)N[C@@H](CC(C)C)C(=O)N[C@@H](Cc1c[nH]cn1)C(=O)N[C@@H](CCCCN)C(=O)N[C@@H](CC(C)C)C(=O)N[C@@H](CCC(N)=O)C(=O)N[C@H](C(=O)N[C@@H](Cc1ccc(O)cc1)C(=O)N1CCC[C@H]1C(=O)N[C@@H](CCCNC(=N)N)C(=O)N[C@H](C(=O)N[C@@H](CC(N)=O)C(=O)N[C@H](C(=O)NCC(=O)N[C@@H](CO)C(=O)NCC(=O)N[C@H](C(=O)N1CCC[C@H]1C(N)=O)[C@@H](C)O)[C@@H](C)O)[C@@H](C)O)[C@@H](C)O [sCT, salmon calcitonin-(1-32)] | – | produces in the human serum an antibody response
